Here are results for three compounds from patent EP4039264A1, “ORAL PEPTIDE ANTAGONISTS OF MULTIPLE CHEMOKINE RECEPTORS FOR REVERSING LOSS OF SYNAPSES AND DENDRITIC SPINES” (Creative Bio-Peptides Inc., priority 2021, dated 2022).

The conditions of assay [1]: HAND phase 2 human trials and brain scans; cited from earlier work.
Assay [2] has as its target T1, CCR5 (Mus musculus, UniProt P51682).
T1 construct: neurons express CCR5 and CXCR4 receptors that control synapse regeneration; endogenous in cells; host or cells: primary E16.5 mouse hippocampal neurons
Briefly: gp120-induced cofilin-rod formation in cultured hippocampal neurons, CCR5-tropic gp120 (Fig. 2A). The note with it: cultured mouse hippocampal neurons devoid of immune cells. The class given is cell-based.

Assay [3] relates to CCR5. The note with it: pharmacologic blockade of CCR5 after stroke and traumatic brain injury; cited from earlier work.
Another assay deals with CXCR4 (Mus musculus, UniProt P70658). The note with it: CXCR4 tropic gp120; cultured mouse hippocampal neurons devoid of immune cells. How it is done: Aβd/t was isolated from medium of cultured 7PA2 cells, a CHO cell line expressing a form of human APP found in Familial AD. […] Neuronal cultures, fixation, permeabilization, blocking and immunostaining is performed starting with E16.5 mouse hippocampal neurons by common methods in broad use.
Chain of CXCR4 (P70658 whole entry): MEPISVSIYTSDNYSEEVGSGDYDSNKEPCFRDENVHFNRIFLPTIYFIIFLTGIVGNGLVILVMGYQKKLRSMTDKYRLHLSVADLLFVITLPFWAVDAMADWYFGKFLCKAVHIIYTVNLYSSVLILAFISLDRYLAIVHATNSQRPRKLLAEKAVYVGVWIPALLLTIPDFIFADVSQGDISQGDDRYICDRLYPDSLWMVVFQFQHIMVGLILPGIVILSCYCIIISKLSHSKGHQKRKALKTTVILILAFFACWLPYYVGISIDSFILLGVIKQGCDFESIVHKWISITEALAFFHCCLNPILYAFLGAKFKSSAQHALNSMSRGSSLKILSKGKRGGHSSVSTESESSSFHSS
Images of fixed neurons immunostained for cofilin, growth cones and nuclei captured across the entire coverslip are exported to ImageJ. Macro functions are applied to set local threshold and shape/size segmentation for both the cofilin and growth cone antibodies. Cofilin stained material that is not within neurites is eliminated. Results are reported as rods/nucleus, number of rods per area, rods as percent of total area, or, if NeuN stained or identified morphologically, rods per neuron.

T1 sequence (P51682 whole entry): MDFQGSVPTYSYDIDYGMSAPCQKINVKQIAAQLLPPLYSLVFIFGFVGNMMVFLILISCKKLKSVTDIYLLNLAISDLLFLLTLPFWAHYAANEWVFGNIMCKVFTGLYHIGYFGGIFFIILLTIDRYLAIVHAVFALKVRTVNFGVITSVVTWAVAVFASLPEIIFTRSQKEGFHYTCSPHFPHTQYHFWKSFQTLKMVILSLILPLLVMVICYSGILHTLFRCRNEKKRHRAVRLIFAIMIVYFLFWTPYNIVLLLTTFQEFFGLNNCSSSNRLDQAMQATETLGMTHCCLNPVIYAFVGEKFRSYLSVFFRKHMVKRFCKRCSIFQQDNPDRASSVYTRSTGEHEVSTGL

On to “[D-Ala1]-Ser-Thr-Thr-Thr-Asn-Tyr-Thr-NH2 [DAPTA]”, for which, in assay [1], the cognitive deficits entry was “able to reverse cognitive deficits”.

Turning to `Cc1nnc(C(C)C)n1[C@@H]1C[C@H]2CC[C@@H](C1)N2CC[C@H](NC(=O)C1CCC(F)(F)CC1)c1ccccc1` [maraviroc], the “cofilin-rods formed by neurons treated with gp120” value at CCR5 [2] is “inhibited”. In addition, the “dendritic spines and neurite cortical projections” value in the assay with CCR5 [3] was “preservation of dendritic spines and new patterns of neurite cortical projections”.

Consider `c1cc(CN2CCCNCCNCCCNCC2)ccc1CN1CCCNCCNCCCNCC1` [AMD3100], for which, on CXCR4, the “cofilin-rods formed by neurons treated with gp120” value is “inhibited”.
